Values quoted from earlier work in US10463707B2, “Process for preparing herbal extracts” (MOLEAC PTE LTD., priority 2015, dated 2019).

Settings: Chen et al. Planta Med 2009

## C/C=C\c1cc(OC)c(OC)cc1OC [beta asarone]
  Safe limits for beta asarone consumption: 0.115 mg per person per day
Equivalent to the per-person limit
  Safe limits for beta asarone consumption (equivalent): 0.002 mg/kg body weight/day
